Laboratory results taken from patent US12435058B2, “KIF18A inhibitors” (AMGEN INC., priority 2019, dated 2025).

target: T1, Recombinant human KIF18A (1-467 His-tagged) protein (Homo sapiens, UniProt Q8NI77); experiment: KIF18A Enzyme Assay (microtubule-stimulated ATPase activity, ADP-Glo); format: biochemical; conditions: KIF18A protein 30 nM, ATP 75 μM (at Km), 30 μg/mL pig microtubules, ADP-Glo luminescence
T1 construct: Recombinant human KIF18A (1-467 His-tagged) protein; His; made in house
Text: For compounds in Table A, the following assay conditions were employed:
KIF18A Enzyme Assay: Microtubule-stimulated ATPase activity assay is used to measure KIF18A enzyme activity after treatment with compound. Compounds were 2-fold serially diluted in DMSO (Sigma Inc) over 22-point concentration range. Recombinant human KIF18A (1-467 His-tagged) protein was expressed using a baculovirus system and purified by affinity chromatography by Amgen Inc. Concentrations of KIF18A protein, microtubules (MT), and ATP in the reaction were optimized for standardized homogenous enzyme assay using ADP-Glom Kinase/ATPase Assay Kit (Promega Inc). The assay measures ADP formed from the ATPase reaction. […] Read luminescence using EnVision microplate reader with ultra-luminescence module (Perkin Elmer Inc). Concentration-response curve-fitting and IC50 determination was performed using Genedata Screener Software (Standard 15.0.1, Genedata Inc) with a four-parameter logistic regression fit model.

T1 sequence (Q8NI77 1-467): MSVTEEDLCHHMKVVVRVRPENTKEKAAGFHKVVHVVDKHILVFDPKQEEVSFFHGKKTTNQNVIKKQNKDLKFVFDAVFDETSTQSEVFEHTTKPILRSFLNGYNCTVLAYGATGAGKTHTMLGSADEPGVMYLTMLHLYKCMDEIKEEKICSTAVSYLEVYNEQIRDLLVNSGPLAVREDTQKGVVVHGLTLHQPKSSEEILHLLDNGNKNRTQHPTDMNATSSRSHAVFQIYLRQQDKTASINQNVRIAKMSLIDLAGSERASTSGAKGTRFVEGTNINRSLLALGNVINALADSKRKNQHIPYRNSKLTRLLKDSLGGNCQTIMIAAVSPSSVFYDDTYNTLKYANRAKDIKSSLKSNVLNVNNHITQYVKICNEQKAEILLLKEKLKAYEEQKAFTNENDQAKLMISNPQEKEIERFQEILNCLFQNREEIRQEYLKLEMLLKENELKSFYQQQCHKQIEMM
T1 sequence (P02550 whole entry partner): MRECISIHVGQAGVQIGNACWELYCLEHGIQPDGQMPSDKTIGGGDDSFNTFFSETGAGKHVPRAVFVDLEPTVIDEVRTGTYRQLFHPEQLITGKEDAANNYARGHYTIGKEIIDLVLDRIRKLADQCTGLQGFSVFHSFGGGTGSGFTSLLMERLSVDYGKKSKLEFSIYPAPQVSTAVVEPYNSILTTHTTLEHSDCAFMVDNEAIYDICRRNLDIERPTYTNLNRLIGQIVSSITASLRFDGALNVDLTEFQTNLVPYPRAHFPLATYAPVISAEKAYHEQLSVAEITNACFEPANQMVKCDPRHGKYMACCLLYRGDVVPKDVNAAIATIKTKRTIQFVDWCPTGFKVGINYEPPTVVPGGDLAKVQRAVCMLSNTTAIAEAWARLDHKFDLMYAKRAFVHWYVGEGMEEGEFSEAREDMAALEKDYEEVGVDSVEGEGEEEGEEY
T1 sequence (P02554 whole entry partner): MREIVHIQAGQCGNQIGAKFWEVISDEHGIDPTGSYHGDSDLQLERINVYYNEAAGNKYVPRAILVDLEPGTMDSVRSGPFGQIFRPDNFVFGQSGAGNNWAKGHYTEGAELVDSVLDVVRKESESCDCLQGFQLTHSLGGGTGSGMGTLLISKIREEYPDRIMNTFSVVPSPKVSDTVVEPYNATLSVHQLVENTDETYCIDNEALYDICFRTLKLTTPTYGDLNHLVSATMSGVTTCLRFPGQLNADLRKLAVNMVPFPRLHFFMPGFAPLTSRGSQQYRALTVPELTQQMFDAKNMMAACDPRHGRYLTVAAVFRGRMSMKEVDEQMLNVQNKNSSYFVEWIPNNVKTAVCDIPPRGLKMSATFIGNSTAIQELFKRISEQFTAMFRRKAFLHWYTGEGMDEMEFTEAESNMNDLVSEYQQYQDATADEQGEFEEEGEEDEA

| IC50 [nM] | SMILES |
| --- | --- |
| 135 | CC(C)(CO)Nc1cnc(C(=O)Nc2cccc(S(=O)(=O)N3CCCCC3)c2)c(N2CCC3(CC2)CC3)n1 [Example 103-1, 5-((1-hydroxy-2-methylpropan-2-yl)amino)-N-(3-(piperidin-1-ylsulfonyl)phenyl)-3-(6-azaspiro[2.5]octan-6-yl)pyrazine-2-carboxamide] |
| 143 | O=C(Nc1cccc(S(=O)(=O)C2CCCC2)c1)c1ncc(NC2(CO)CC2)nc1N1CCC2(CC1)CC2 [Example 103-2, N-(3-(cyclopentylsulfonyl)phenyl)-5-((1-(hydroxymethyl)cyclopropyl)amino)-3-(6-azaspiro[2.5]octan-6-yl)pyrazine-2-carboxamide] |
| 139 | CC(C)(C)NS(=O)(=O)c1cccc(NC(=O)c2ncc(NC3(CO)CC3)nc2N2CCC3(CC2)CC3)c1 [Example 103-3, N-(3-(N-(tert-butyl)sulfamoyl)phenyl)-5-((1-(hydroxymethyl)cyclopropyl)amino)-3-(6-azaspiro[2.5]octan-6-yl)pyrazine-2-carboxamide] |
| 406 | CC(C)(O)CNc1cnc(C(=O)Nc2cccc(S(=O)(=O)N3CCCCC3)c2)c(N2CCC3(CC2)CC3)n1 [Example 103-4, 5-((2-hydroxy-2-methylpropyl)amino)-N-(3-(piperidin-1-ylsulfonyl)phenyl)-3-(6-azaspiro[2.5]octan-6-yl)pyrazine-2-carboxamide] |
| 418 | CC(C)(C)NS(=O)(=O)c1cccc(NC(=O)c2ncc(NC(C)(C)CO)nc2-c2ccc(F)cc2)c1 [Example 104-1, N-(3-(N-(tert-butyl)sulfamoyl)phenyl)-3-(4-fluorophenyl)-5-((1-hydroxy-2-methylpropan-2-yl)amino)pyrazine-2-carboxamide] |
| 168 | CC(C)(C)NS(=O)(=O)c1cccc(NC(=O)c2ncc(NC(C)(C)CO)nc2-c2ccc(C(F)(F)F)cc2)c1 [Example 104-2, N-(3-(N-(tert-butyl)sulfamoyl)phenyl)-5-((1-hydroxy-2-methylpropan-2-yl)amino)-3-(4-(trifluoromethyl)phenyl)pyrazine-2-carboxamide] |
| 146 | CCc1ccc(-c2nc(NC(C)(C)CO)cnc2C(=O)Nc2cccc(S(=O)(=O)NC(C)(C)C)c2)cc1 [Example 104-3, N-(3-(N-(tert-butyl)sulfamoyl)phenyl)-3-(4-ethylphenyl)-5-((1-hydroxy-2-methylpropan-2-yl)amino)pyrazine-2-carboxamide] |
| 141 | CC(C)c1ccc(-c2nc(NC(C)(C)CO)cnc2C(=O)Nc2cccc(S(=O)(=O)NC(C)(C)C)c2)cc1 [Example 104-4, N-(3-(N-(tert-butyl)sulfamoyl)phenyl)-5-((1-hydroxy-2-methylpropan-2-yl)amino)-3-(4-isopropylphenyl)pyrazine-2-carboxamide] |

Further lines, the compound ahead of its results:

| SMILES | IC50 [nM] |
| --- | --- |
| CC(C)(CO)Nc1cnc(C(=O)Nc2cccc(N3CCS(=O)(=O)CC3)c2)c(N2CCC3(CC2)CC3)n1 [Example 101-6, N-(3-(1,1-dioxidothiomorpholino)phenyl)-5-((1-hydroxy-2-methylpropan-2-yl)amino)-3-(6-azaspiro[2.5]octan-6-yl)pyrazine-2-carboxamide] | 545 |
| CC(C)(CO)Nc1cnc(C(=O)Nc2cccc(N3CCOCC3)c2)c(N2CCC3(CC2)CC3)n1 [Example 101-7, 5-((1-hydroxy-2-methylpropan-2-yl)amino)-N-(3-morpholinophenyl)-3-(6-azaspiro[2.5]octan-6-yl)pyrazine-2-carboxamide] | 768 |
| CC(C)(CO)Nc1cccc(NC(=O)c2ncc(NC(C)(C)CO)nc2N2CCC3(CC2)CC3)c1 [Example 101-8, 5-((1-hydroxy-2-methylpropan-2-yl)amino)-N-(3-((1-hydroxy-2-methylpropan-2-yl)amino)phenyl)-3-(6-azaspiro[2.5]octan-6-yl)pyrazine-2-carboxamide] | 240 |
| CC(C)(CO)Nc1cnc(C(=O)Nc2cccc(S(=O)(=O)C3CCCC3)c2)c(N2CCC3(CC2)CC3)n1 [Example 103, N-(3-(Cyclopentylsulfonyl)phenyl)-5-((1-hydroxy-2-methylpropan-2-yl)amino)-3-(6-azaspiro[2.5]octan-6-yl)pyrazine-2-carboxamide] | 77 |
| CC(C)(C)NS(=O)(=O)c1cccc(NC(=O)c2ncc(NC(C)(C)CO)nc2-c2ccc(Cl)cc2)c1 [Example 104, N-(3-(N-(tert-butyl)sulfamoyl)phenyl)-3-(4-chlorophenyl)-5-((1-hydroxy-2-methylpropan-2-yl)amino)pyrazine-2-carboxamide] | 135 |
| CC(C)(C)NS(=O)(=O)c1cccc(NC(=O)c2ncc(NC(C)(CO)CO)nc2N2CCC3(CC2)CC3)c1 [Example 106, N-(3-(N-(tert-butyl)sulfamoyl)phenyl)-5-((1,3-dihydroxy-2-methylpropan-2-yl)amino)-3-(6-azaspiro[2.5]octan-6-yl)pyrazine-2-carboxamide] | 103 |
